# Like-named read-outs stand apart in the source and are kept apart here.
# Key:
# [1] = Pharmacokinetic test - rats; design: species or system SD rats; conditions: in vivo, 3 mg/kg, Rat PK, IV, 3 mpk, single injection, plasma; for Vd: read-out: Vz
# Description: Experimental objective: To evaluate the pharmacokinetic characteristics of the compound of the present application in rats.
# SD rats (Beijing Vital River Laboratory Animal Technology Co., Ltd.) were randomly divided, 6 rats/group, half male and half female, and were injected once with a sample (10% DMSO-90% (20% 2-hydroxypropyl-β-cyclodextrin-physiological saline), diluted according to the dose). Plasma samples were respectively taken before administration, and at 5 min, 30 min, 1 h, 2 h, 4 h, 6 h, 8 h, 10 h, and 24 h after administration. The sample concentration in plasma was determined by LC-MS method, and pharmacokinetic parameters were calculated (see Table 4). Table 4 Pharmacokinetic characteristics of the compound of the present application in SD rats
# [2] = format: in vivo; conditions: SD rats, intravenous administration once a day for 7 consecutive days; result in words
# Description: The possible toxic reactions and severity thereof of the drug on SD rats were observed after continuous intravenous administration for 7 days. The toxicity of the compound in rodents was preliminarily evaluated. SD rats (Beijing Vital River Laboratory Animal Technology Co., Ltd.) were randomly divided, 6 rats/group, half male and half female, and injected with samples (preparation: 10% DMSO-90% (20% 2-hydroxypropyl-β-cyclodextrin-physiological saline), diluted according to the dose) once a day for 7 consecutive days. Weight and food intake were monitored every two days, and the status of the animals was observed. Blood samples were taken 24 h after the last dose for hematology, blood biochemistry and coagulation indexes.
# [3] = system: NCI-N87 cells; assay: Inhibitory activity on NCI-N87 cells (MTT); format: cell-based, human; conditions: for IC50: Homo sapiens, read-out: NCI-N87 IC50
# Description: (§1) MDA-MB-468 cells (purchased from ATCC) were cultured in L-15 culture medium (purchased from Sigma-Aldrich), NCI-N87 cells (purchased from ATCC) were cultured in RPMI-1640 culture medium (purchased from Gibco), and HT29 cells (purchased from ATCC) were cultured in McCoy's 5A culture medium (purchased from Gibco), each of which was supplemented with 10% fetal bovine serum and 1% penicillin-streptomycin solution, and placed in a 5% CO2 incubator at 37°C. The cells were seeded in 96-well plates at 3000 cells per well and cultured overnight. Different concentrations of drugs were respectively added, and the cells were placed in a normal incubator (21% O2, 5% CO2, and 74% N2) and cultured for 72 h. 100 µL of culture medium was removed. 10 µL of MTT solution (5 mg/mL) was added. Then the cells were cultured in the incubator for 4 hours. 50 µL of triple combination solution (10% SDS, 5% isobutanol, and 0.012 mol/L HCl) was added. The cells were placed in the incubator overnight. OD values were measured at 540 nm wavelength, and median inhibition concentration IC50 of the drug on tumor cell growth was calculated (n=3).
# [4] = system: HT29 cells; assay: Inhibitory activity on HT29 cells (MTT); format: cell-based, human; conditions: for IC50: Homo sapiens, read-out: HT29 IC50
# Description: as §1
# [5] = system: MDA-MB-468 cells; assay: Inhibitory activity on MDA-MB-468 cells (MTT); format: cell-based; conditions: for IC50: Homo sapiens, read-out: MDA-MB-468 IC50
# Description: as §1
# [6] = system: HCT116 cells; assay: HCT-116 cell inhibitory activity test (MTT); format: cell-based; conditions: Homo sapiens, read-out: IC50 Activity
# Description: HCT116 cells (purchased from ATCC) were cultured in a 5% CO2 incubator at 37 °C using DMEM culture medium (purchased from Gibco) supplemented with 10% fetal bovine serum and 1% penicillin-streptomycin solution. The cells were seeded in 96-well plates at 3000 cells per well and cultured overnight. Different concentrations of drugs were respectively added, and the cells were placed in a normal incubator (21 % O2, 5% CO2, and 74% N2) and cultured for 72 h. 100 µL of culture medium was removed. 10 µL of MTT solution (5 mg/mL) was added. Then the cells were cultured in the incubator for 4 hours. 50 µL of triple combination solution (10% SDS, 5% isobutanol, and 0.012 mol/L HCl) was added. The cells were placed in the incubator overnight. OD values were measured at 540 nm wavelength, and median inhibition concentration IC50 of the drug on tumor cell growth was calculated (n=3). Compounds with activity designated as "A" provide IC50≤10nM. Compounds with activity designated as "B" provide IC50 of 10 nM to 100 nM. Compounds with activity designated as "C" provide IC50 of 100 nM to 1000 nM. Compounds with activity designated as "D" provide IC50 of 1000 nM to 10000 nM. Titer (nM); Efficacy (IC50).
# [7] = Pharmacokinetic test - mice; format: in vivo, Balb/c mice; conditions: mouse, 3 mg/kg, Mice PK, IV, 3 mpk, single injection, plasma
# Description: Experimental objective: To evaluate the pharmacokinetic characteristics of the compound of the present application in mice.
# Balb/c mice (purchased from Beijing Vital River) were randomly divided, 12 mice/group, half male and half female, and were injected once with a sample (10% DMSO-90% (20% 2-hydroxypropyl-β-cyclodextrin-physiological saline), diluted according to the dose). Cross samples of plasma were respectively taken before administration, and at 5 min, 30 min, 1 h, 2 h, 4 h, 6 h, 8 h, 10 h, and 24 h after administration. The sample concentration in plasma was determined by LC-MS method, and pharmacokinetic parameters were calculated (see Table 3). Table 3 Pharmacokinetic characteristics of the compound of the present application in mice
SMILES,AUC(0-inf) [1],Cmax [1],clearance [1],half-life [1],Vd [1],safety [2],"NCI-N87 Inh.max ([3]; NCI-N87 cells, 72 h, MTT)","HT29 Inh.max ([4]; HT29 cells, 72 h, MTT)","MDA-MB-468 Inh.max ([5]; MDA-MB-468 cells, 72 h, MTT)",also measured
[2H]C1([2H])OC(=O)[C@](O)(CC)c2cc3n(c(=O)c21)Cc1c-3nc2ccc(O)cc2c1CC [Compound A-9],99.5 ng·h/mL,288 ng/mL,167 mL/min/kg,1.35 h,19.5 L/kg,better safety,>80%,>90%,>80%,"IC50 ([3]; NCI-N87, 72 h): < 10 nM; IC50 ([4]; HT-29, 72 h): < 10 nM; IC50 ([5]; MDA-MB-468, 72 h): < 10 nM; IC50 ([6]; HCT-116, 72 h): < 10 nM"
[2H]C1([2H])OC(=O)[C@](O)(CC)c2cc3n(c(=O)c21)Cc1c-3nc2cc(F)c(C)c3c2c1[C@@H](N)CC3 [Compound A-11],135 ng·h/mL,215 ng/mL,381 mL/min/kg,0.91 h,30.1 L/kg,better safety,>70%,>90%,>80%,"AUC(0-inf) [7]: 321 ng·h/mL; Cmax [7]: 902 ng/mL; clearance [7]: 156 mL/min/kg; half-life [7]: 1.19 h; Vd ([7]; read-out: Vz): 16 L/kg; IC50 ([3]; NCI-N87 cells, 72 h, MTT, n=3): < 10 nM; IC50 ([4]; HT-29, HT29 cells, 72 h, MTT, n=3): < 10 nM; IC50 ([5]; MDA-MB-468 cells, 72 h, MTT, n=3): < 10 nM; IC50 ([6]; HCT-116, HCT116 cells, 72 h, MTT, n=3): < 10 nM"

# From patent publication EP4534539A1, “DIDEUTERATED CAMPTOTHECIN DERIVATIVE AND PREPARATION METHOD THEREFOR” (priority 2022, dated 2023)
